For four compounds, GH, solubility and Solubility in water results are on record in patent US20020187938A1, “Ghrelin antagonists” (priority 2000, published 2002).

Values after ≈ are worked out from the molar mass of the structure shown. Values joined by “and” are separate entries in the source; they are usually repeats but may differ in a detail not shown here. Equal entries are not always repeated. Where a SMILES comes first, the peptide text is derived from it. Where no end group is shown, it is not given here. The star is where a group is joined. Octanoyl = CCCCCCCC(=O)*

For data set [1], the system named is circulating GH. Description: Circulating GH in 10-day old rats after subcutaneous injection. The conditions noted are these: 300 mg/kg, circulating GH at 15 minutes. Format: in vivo. Here is the method: The peptide was injected subcutaneously in 10-day old rats at a dose of 300 mg/kg along with a solvent control and Ghrelin, and the circulating GH determined at 15 minutes, as described in R. Deghenghi et al., Life Sciences 54, 1321-1328 (1994). The results were as follows: The peptide was administered to rats as described above in Example 1. […]

A short description of data set [2]: Solubility in water. The conditions noted are these: for solubility: water. Format: physicochemical. The procedure: Solubility in water: 0.7 mg/ml

Regarding `CCCCCCCC(=O)OC[C@H](NC(=O)[C@H](CO)NC(=O)CN)C(=O)N[C@@H](Cc1ccccc1)C(=O)N[C@@H](CC(C)C)C(=O)N[C@@H](CO)C(=O)N1CCC[C@H]1C(=O)N[C@@H](CCC(=O)O)C(=O)N[C@@H](C)C(=O)N[C@@H](CCCCN)C(=O)N[C@@H](CC(C)C)C(=O)N[C@@H](CCC(N)=O)C(=O)N1CCC[C@H]1C(=O)N[C@@H](CCCNC(=N)N)C(=O)O` [Peptide of Example 2, Gly-Ser-Ser(Octanoyl)-Phe-Leu-Ser-Pro-Glu-Ala-Lys-Leu-Gln-Pro-Arg] (H-GSS(Octanoyl)FLSPEAKLQPR-OH), in data set [1], the GH turned out to be 7.00 ± 3.5 ng/mL. In addition, in data set [2], the concentration in solution (solubility) came to 900 µg/mL (≈ 548 µM). With `CCCCCCCC(=O)OC[C@H](NC(=O)[C@H](CO)NC(=O)CN)C(=O)N[C@@H](Cc1ccccc1)C(=O)N[C@@H](CC(C)C)C(=O)N[C@@H](CO)C(=O)N1CCC[C@H]1C(=O)N[C@@H](CCC(=O)O)C(=O)O` [Peptide of Example 1, Gly-Ser-Ser(Octanoyl)-Phe-Leu-Ser-Pro-Glu], the solubility (as a rule, the dissolved amount per volume that the medium holds) in data set [2] turned out to be 700 µg/mL (≈ 738 µM). Take `CCCCCCCC(=O)OC[C@H](NC(=O)[C@H](CO)NC(=O)CN)C(=O)N[C@@H](Cc1ccccc1)C(=O)O` [Peptide of Example 3, Gly-Ser-Ser(Octanoyl)-Phe] (H-GSS(Octanoyl)F-OH; N-terminus and C-terminus assumed): the Solubility in water entry in data set [2] is listed as “insoluble”.

For “Ghrelin (human): peptide of 27 or 28 amino acids with an octanoyl ester on a serine residue; potent releaser of growth hormone (GSS(Octanoyl)FLSPEHQRVQQRKESKKPPAKLQPR; also: octanoyl ester on a serine residue; UniProt Q9UBU3 24-51, looked up)”, the GH in data set [1] is 139.80 ± 15.37 ng/mL and 140 ± 15 ng/mL and 139.8 ± 15.4 ng/mL.
